Like-named read-outs stand apart in the source and are kept apart here.
Tests used:
[1] = target: T1, Rice recombinant CYP701A6 (ent-kaurene oxidase) (Oryza sativa subsp. japonica, UniProt Q5Z5R4); test: CYP701A6 inhibition assay (formation of end product KA); type: biochemical
T1 construct: made in house; host or cells: insect cells (baculovirus vector)
T1 sequence (Q5Z5R4 1-505): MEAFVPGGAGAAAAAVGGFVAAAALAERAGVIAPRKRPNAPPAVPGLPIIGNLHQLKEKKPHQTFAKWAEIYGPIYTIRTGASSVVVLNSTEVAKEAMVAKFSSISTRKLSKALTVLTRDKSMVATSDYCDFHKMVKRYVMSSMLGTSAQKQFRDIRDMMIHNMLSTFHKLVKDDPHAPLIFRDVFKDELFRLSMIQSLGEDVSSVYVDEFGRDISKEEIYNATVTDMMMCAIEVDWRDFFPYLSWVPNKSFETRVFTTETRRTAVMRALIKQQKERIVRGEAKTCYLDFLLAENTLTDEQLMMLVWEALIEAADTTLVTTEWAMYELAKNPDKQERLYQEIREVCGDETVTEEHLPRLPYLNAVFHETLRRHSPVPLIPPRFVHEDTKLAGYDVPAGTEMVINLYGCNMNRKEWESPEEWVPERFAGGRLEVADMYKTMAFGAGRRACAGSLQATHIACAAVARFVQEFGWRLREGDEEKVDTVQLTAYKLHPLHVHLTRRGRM
Description: To evaluate the enzymatic selectivity between CYP707A and CYP701A, we examined the inhibitory activity against recombinant rice containing CYP701A6 expressed in insect cells using a baculovirus vector. This enzyme catalyses all three steps to KA via the corresponding alcohol and aldehyde, and consequently, the kinetic analysis is very complicated. Therefore, we evaluate the IC50 value for the formation of the end product, KA, instead of the KI value.
Reaction mixtures, containing 0.058 μM of […] microsomes, ATR2 (0.115 U), ent-kaurene (final concentration of 10 μM), inhibitors (0 for control, 1.5–1,500 μM in 8 μL dimethylformamide), and 20 mM NADPH in 500 mM potassium phosphate buffer (pH 7.4), were incubated at 30 °C for 10 min. Reactions were initiated by adding NADPH and stopped by the addition of 100 μL of 1 M HCl. Abietic acid, as the internal standard, was then added to the reaction product, which was extracted with EtOAc (400 μL × 3). The organic phase was dried over Na2SO4 and concentrated in vacuo. To derivatize the reaction products, MeOH (50 μL) and trimethylsilyldiazomethane (2 M in 5 μL hexane) were added, and the reaction mixture was incubated at room temperature for 10 min. The organic solvent was removed under N2, and samples were adjusted to 150 μL with hexane before a gas chromatography-mass spectrometry analysis (QP2010-plus; Shimadzu Corp., Kyoto, Japan). The conditions were as follows: the column was DB-5ms (0.25 mm id × 15 m, 0.25 μm film thickness; Agilent J & W, Folsom, CA, USA), the carrier gas was He, the flow rate was 1.65 mL min^−1, the injection port temperature was 280 °C, splitless injection, and the programmed column temperature was a step gradient of 80 °C for 1 min, 80–200 °C at 18 °C min^−1, 200–210 °C at 2 °C min^−1, 210–280 °C at 30 °C min^−1, and then 280 °C for 3 min. The KA content was calculated from the area ratio of molecular and fragment ions of methyl KA (m/z 316, 273, and 257) to those of methyl abietate (m/z 316 and 256). The inhibition ratio was defined as [(A − B)/A] × 100, where A = the amount of methyl KA/methyl abietate when the inhibitor was absent from the reaction mixture (control), and B = the amount of methyl KA/methyl abietate when the inhibitor was present. All of the tests were conducted at least three times.

rice seedling growth = test: Rice seedling elongation assay; type: in vivo, Oryza sativa L. cv. Nipponbare; details: 0.3 μM; 7 d
Description: The effects of (−)-Abz-T compounds were also tested on the early growth of rice seedlings to investigate whether the plant growth-retardant effect derived from UNI declined. […] This was the same trend observed for (−)-Abz-E2B[26]. […] Thus, the growth-retardant effects of (−)-Abz-T compounds may arise from an increase in the endogenous ABA level due to the CYP707A inhibition, although we cannot exclude the possibility that Abz-T compounds may inhibit off-target enzymes other than CYP707A and CYP701A.
Figure 4 Effects of (−)-Abz-T compounds on rice seedling growth compared with the effects of UNI and (−)-Abz-E2B. Seedlings grown on test media containing indicated concentrations of azole inhibitors for 7 d. Scale bars represent 10 mm. Compound 6 is also referred to as Abz-E3M.
For the rice seedling elongation assay, seven seeds (Oryza sativa L. cv. Nipponbare) were sterilised with reagent-grade EtOH for 5 min and washed with running tap water. They were then soaked in distilled water and incubated under continuous illumination at 25 °C for 3 d to germinate. The germinated seeds were then soaked in 2 mL of a test medium in a glass tube and grown under continuous illumination at 25 °C. When the seedlings were 7 d old, the length of the second leaf sheath was measured. All of the assays were conducted at least three times.

[2] = target: T2, Arabidopsis recombinant CYP707A3 (ABA 8′-hydroxylase) (Arabidopsis thaliana, UniProt Q9FH76); test: CYP707A3 inhibition assay (decrease of enzymatic product PA); type: biochemical; details: Arabidopsis recombinant CYP707A3 expressed in E. coli; for IC50: 5 μM ABA as substrate, read-out: CYP707A IC50
T2 construct: made in house; host or cells: Escherichia coli (microsomal/membrane fraction)
T2 sequence (Q9FH76 1-463): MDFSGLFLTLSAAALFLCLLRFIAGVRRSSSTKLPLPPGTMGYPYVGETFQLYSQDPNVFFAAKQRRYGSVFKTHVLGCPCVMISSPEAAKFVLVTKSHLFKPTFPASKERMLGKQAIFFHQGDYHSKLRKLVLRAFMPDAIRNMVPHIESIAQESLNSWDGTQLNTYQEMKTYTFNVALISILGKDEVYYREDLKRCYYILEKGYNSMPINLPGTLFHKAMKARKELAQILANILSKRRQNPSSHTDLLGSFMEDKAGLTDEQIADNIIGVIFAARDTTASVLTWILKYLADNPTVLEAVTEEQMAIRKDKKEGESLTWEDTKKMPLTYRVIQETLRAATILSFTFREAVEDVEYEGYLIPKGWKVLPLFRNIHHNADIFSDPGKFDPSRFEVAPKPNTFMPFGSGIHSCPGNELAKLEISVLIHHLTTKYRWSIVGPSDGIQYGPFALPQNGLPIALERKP
Description: The inhibitory activities of Abz-T compounds against ABA 8′-hydroxylase were examined using recombinant Arabidopsis CYP707A3 co-expressed with Arabidopsis P-450 reductase (ATR1) in Escherichia coli[22]. The activity levels were evaluated based on the decrease in the amount of the enzymatic product, PA.
Reactions were initiated by adding NADPH, stopped by the addition of 25 μL of 1 M NaOH and then acidified with 50 μL of 1 M HCl. Reaction products were extracted by loading the mixture onto an Oasis HLB cartridge (1 mL, 30 mg; Waters Corp., Milford, MA, USA) and were washed with 1 mL of 10% MeOH in H2O (v/v) containing 1% acetic acid (AcOH, v/v). The enzyme products were then eluted with 1 mL of MeOH containing 1% AcOH, and the eluate was concentrated in vacuo. Each dried sample was then dissolved in 50 μL of MeOH, and a 20-μL volume was subjected to HPLC (Prominence; Shimadzu Corp., Kyoto, Japan). HPLC conditions were as follows: the octadecylsilyl column was composed of Hydrosphere C18 (150 × 6.0 mm, YMC Co., Ltd., Kyoto, Japan), and the solvent comprised 17% acetonitrile (MeCN) in H2O containing 0.05% AcOH (v/v). The flow rate was 1.0 mL min^−1, and detection was at 254 nm. Enzyme activity was evaluated by determining the amount of PA in control experiments prior to taking each set of measurements. The inhibition constants were determined using the Enzyme Kinetics module of the SigmaPlot 10 software (Systat Software, Inc., San Jose, CA, USA) after determining the inhibition mode by plotting the reaction velocity in the presence and absence of the inhibitor on a double-reciprocal plot. The inhibition ratio was defined as [(A − B)/A] × 100, where A = the amount of PA when the inhibitor was absent from the reaction mixture (control), and B = the amount of PA when the inhibitor was present. All of the tests were conducted at least three times.

[3] = system: ABA-responsive genes MAPKKK18, RD29A and RD29B; test: qRT-PCR of ABA-responsive genes in Arabidopsis seedlings; type: in vivo, Arabidopsis (Columbia accession); details: 10-day-old seedlings, 6 h
Description: Figure 5 Effects of (−)-Abz-E3M on the expression levels of Arabidopsis ABA-responsive genes. Expression of MAPKKK18, RD29A and RD29B after treatment with (−)-Abz-E2B or (−)-Abz-E3M in the absence or presence of 0.25 μM ABA (n = 4, error bar represents s.d.).
Arabidopsis (Columbia accession) were grown for 10 d on agar plates containing 1/2 Murashige and Skoog (MS) and 0.5% sucrose at 22 °C under an 18/6-h light/dark cycle. Seedlings were incubated in the chemical solutions for 6 h. Total RNA from seedlings was isolated using the Plant RNA purification reagent (Thermo Fisher Scientific) according to the manufacturer’s instructions. cDNA was synthesised using the QuantiTec reverse transcription kit (Qiagen). Maize (cv. Gold rush, Sakata Seed Corporation) seedlings were grown in 100-mL pots containing 75 g of moist soil in a glass house. The root parts of the maize seedlings were washed with tap water and dipped in 100 μM (−)-Abz-E3M chemical solution containing 0.05% Tween-20 overnight. Total RNA from maize seedlings was isolated using an RNeasy mini kit (Qiagen) with the ‘on-column’ DNA digestion method. cDNA was synthesised using a High-Capacity cDNA Reverse Transcription Kit (Thermo Fisher Scientific). Real-time PCR using SYBR Premix Ex Taq™ II (Takara) was performed with Step One-Plus (Thermo Fisher Scientific). The primer sets are shown in Supplemental Table S1.

[4] = Rice recombinant CYP701A6 expressed in insect cells, 10 μM ent-kaurene, formation of KA, read-out: CYP701A IC50

Molecule | IC50 [1] [nM] | Effect on elongation of rice seedlings (rice seedling growth) | IC50 [2] [nM] | IC50 [1, 4] [nM] | Ki ([2]; ABA 1–64 μM, read-out: CYP707A KI) [nM] | Expression of ABA-responsive genes MAPKKK18, RD29A and RD29B ([3]; absence of exogenous ABA) | Expression of ABA-responsive genes MAPKKK18, RD29A and RD29B ([3]; co-treatment with 0.25 μM ABA)
CC(C)(C)[C@H](O)/C(=C\c1ccc(Cl)cc1)n1cncn1 [UNI, S-uniconazole, reference compound] | 57 | strongly inhibited the elongation of rice seedlings | – | – | – | – | –
abscinazole-E2B [(+)-Abz-E2B, reference compound] | – | – | 1100 | 1300 | – | – | –
abscinazole-E2B [(−)-Abz-E2B, reference compound] | – | – | 54 | 1200 | 38 | did not induce the expression | enhanced the expression levels of ABA-responsive genes
abscinazole-E3M [(+)-6] | – | – | 1200 | 1600 | – | – | –

Reference: paper PMC5107945, “Abscinazole-E3M, a practical inhibitor of abscisic acid 8′-hydroxylase for improving drought tolerance” (Scientific Reports, 2016)
